Key:
Cannabinoid receptor 2 = Cannabinoid receptor 2 (Homo sapiens, UniProt P34972); test: Binding affinity to human CB2 receptor
Cannabinoid receptor 1 [1] = target: T1, Cannabinoid receptor 1 (Homo sapiens, UniProt P21554); test: Binding affinity to human CB1 receptor
[2] = Oral bioavailability in rat at 3 mg/kg; format: ADME, organism-based; conditions: in vivo
Mus musculus [3] = test: Analgesic activity against formalin-induced inflammatory pain in po dosed ICR mouse assessed as paw licking for 10 to 30 mins; format: functional
[4] = Cmax in rat at 2 mg/kg, iv and 3 mg/kg, po; format: ADME, organism-based; conditions: in vivo
[5] = AUC in rat at 3 mg/kg, po; format: ADME, organism-based; design: dose 3 mg/kg, route oral; conditions: plasma
Cannabinoid receptor 1 [6] = target: Cannabinoid receptor 1 (Mus musculus, UniProt P47746); test: Binding affinity to mouse CB1 receptor
Cannabinoid receptor 1 (Mus musculus, UniProt P47746), sequence (P47746 whole entry): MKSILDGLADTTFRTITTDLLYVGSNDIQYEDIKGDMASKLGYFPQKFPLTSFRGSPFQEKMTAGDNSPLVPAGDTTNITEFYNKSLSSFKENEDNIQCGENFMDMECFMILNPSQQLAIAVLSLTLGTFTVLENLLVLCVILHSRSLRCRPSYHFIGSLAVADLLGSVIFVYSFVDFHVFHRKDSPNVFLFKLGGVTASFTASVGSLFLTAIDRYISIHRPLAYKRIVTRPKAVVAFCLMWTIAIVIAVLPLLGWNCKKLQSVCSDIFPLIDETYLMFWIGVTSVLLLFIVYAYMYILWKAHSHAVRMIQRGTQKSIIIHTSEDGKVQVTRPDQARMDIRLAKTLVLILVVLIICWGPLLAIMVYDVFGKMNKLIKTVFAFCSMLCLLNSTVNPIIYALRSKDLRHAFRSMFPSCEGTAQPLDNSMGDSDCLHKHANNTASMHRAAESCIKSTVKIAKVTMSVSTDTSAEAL

[7] = Total clearance in rat at 2 mg/kg, iv and 3 mg/kg, po; format: ADME, organism-based; conditions: in vivo
Mus musculus [8] = organism: Mus musculus; test: Ratio of ED50 for analgesic activity in ddY mouse by ring-catalepsy test to ED50 for analgesic activity against formalin-induced inflammatory pain in ICR mouse; format: functional
Mus musculus [9] = test: Analgesic activity against formalin-induced acute pain in po dosed ICR mouse assessed as paw licking for 0 to 5 mins; format: functional
Cannabinoid receptor 1 [10] = target: T1, Cannabinoid receptor 1; test: Binding affinity to human CB1 receptor expressed in CHO cells assessed as inhibition of cAMP accumulation; format: functional, cell-based
[11] = Half life in rat at 2 mg/kg, iv and 3 mg/kg, po; format: ADME, organism-based; conditions: in vivo
Mus musculus [12] = test: Analgesic activity against po dosed ddY mouse assessed as time spent motionless on the ring for 5 mins by ring catalepsy test; format: functional

Cannabinoid receptor 2, sequence (P34972 whole entry): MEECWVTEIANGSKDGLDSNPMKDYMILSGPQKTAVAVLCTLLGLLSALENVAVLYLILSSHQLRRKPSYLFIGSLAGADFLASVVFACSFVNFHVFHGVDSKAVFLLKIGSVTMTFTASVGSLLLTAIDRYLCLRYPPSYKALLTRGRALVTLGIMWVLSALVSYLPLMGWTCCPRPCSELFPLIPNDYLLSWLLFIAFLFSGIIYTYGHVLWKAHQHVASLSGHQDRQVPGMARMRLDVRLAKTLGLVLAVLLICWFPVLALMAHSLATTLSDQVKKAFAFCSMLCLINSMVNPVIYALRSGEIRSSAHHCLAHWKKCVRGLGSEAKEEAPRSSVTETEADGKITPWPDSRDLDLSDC
T1 sequence (P21554 whole entry): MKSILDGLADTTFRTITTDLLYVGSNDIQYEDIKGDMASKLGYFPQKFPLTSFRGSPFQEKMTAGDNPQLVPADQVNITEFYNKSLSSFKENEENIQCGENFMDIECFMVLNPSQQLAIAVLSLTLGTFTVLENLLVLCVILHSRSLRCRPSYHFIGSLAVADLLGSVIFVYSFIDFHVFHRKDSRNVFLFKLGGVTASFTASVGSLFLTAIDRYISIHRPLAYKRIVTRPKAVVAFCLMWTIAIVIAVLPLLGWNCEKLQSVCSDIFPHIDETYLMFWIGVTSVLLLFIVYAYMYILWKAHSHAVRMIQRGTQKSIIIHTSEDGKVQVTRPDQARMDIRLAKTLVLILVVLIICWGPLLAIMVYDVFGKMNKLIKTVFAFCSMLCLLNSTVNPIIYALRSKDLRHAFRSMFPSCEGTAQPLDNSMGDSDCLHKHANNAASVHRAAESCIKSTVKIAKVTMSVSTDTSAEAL

CSC(=O)N1CC2(CCCCC2)CN/C1=N\c1cccc2ccccc12
Ki (Cannabinoid receptor 2): 155 nM | Ki (Cannabinoid receptor 1 [1]): 624 nM

CSC(=S)N1CC2(CCCCC2)CO/C1=N\c1cc(C(C)(C)C)on1
Ki (Cannabinoid receptor 2): 4.7 nM | Ki (Cannabinoid receptor 1 [1]): 17 nM

CCC(CC)(CC)c1cc(/N=C2\OCC3(CCCCC3)CN2C(=S)SC)on1
Ki (Cannabinoid receptor 2): 1 nM | Ki (Cannabinoid receptor 1 [1]): 1 nM

CSC(=S)N1CC2(CCCCC2)CO/C1=N\c1cccc2ccccc12
Ki (Cannabinoid receptor 2): 0.9 nM | Ki (Cannabinoid receptor 1 [1]): 9.3 nM

CSC(=S)N1CC2(CCCCC2)CO/C1=N\c1ccc([N+](=O)[O-])c2ccccc12
Ki (Cannabinoid receptor 2): 2.4 nM | Ki (Cannabinoid receptor 1 [1]): 14 nM

CSC(=S)N1CC2(CCCCC2)CO/C1=N\c1ccccc1
Ki (Cannabinoid receptor 2): 11 nM | Ki (Cannabinoid receptor 1 [1]): 515 nM

COc1ccccc1/N=C1\OCC2(CCCCC2)CN1C(=S)SC
Ki (Cannabinoid receptor 2): 0.9 nM | Ki (Cannabinoid receptor 1 [1]): 59 nM

CSC(=S)N1CC2(CCCCC2)CO/C1=N\c1ccc(F)c2ccccc12
Ki (Cannabinoid receptor 2): 0.8 nM | Ki (Cannabinoid receptor 1 [1]): 4.9 nM

CSC(=S)N1CC2(CCCCC2)CO/C1=N\c1ccc(Cl)c2c1CCCC2
Ki (Cannabinoid receptor 2): 5.8 nM | Ki (Cannabinoid receptor 1 [1]): 76 nM

CSC(=O)N1CC2(CCCCC2)CS/C1=N\c1cccc2ccccc12
Ki (Cannabinoid receptor 2): 1.5 nM | Ki (Cannabinoid receptor 1 [1]): 49 nM

CSC(=S)N1CC2(CCCCC2)CO/C1=N\c1ccc(C#N)c2c1CCCC2
Ki (Cannabinoid receptor 2): 1.9 nM | Ki (Cannabinoid receptor 1 [1]): 101 nM

CSC(=S)N1CC2(CCCCC2)CO/C1=N\c1cccc2c1CCCC2
Ki (Cannabinoid receptor 2): 1 nM | Ki (Cannabinoid receptor 1 [1]): 14 nM

CSC(=O)N1CC2(CCCCC2)CO/C1=N\c1cccc2ccccc12
Ki (Cannabinoid receptor 2): 5.8 nM | Ki (Cannabinoid receptor 1 [1]): 31 nM

CSC(=S)N1CC2(CCCCC2)CO/C1=N\c1ccc(N(C)C)c2ccccc12
Ki (Cannabinoid receptor 2): 6.6 nM | Ki (Cannabinoid receptor 1 [1]): 4.9 nM

CSC(=S)N1CC2(CCCCC2)CO/C1=N\c1ccc(Cl)c2ccccc12
bioavailability [2]: 35% | ED50 (Mus musculus [3]): 0.64 mg/kg | Cmax [4]: 280 ng/mL | AUC [5]: 1210 ng·h/mL | Ki (Cannabinoid receptor 1 [6]): 0.7 nM | clearance [7]: 14.7 mL/min/kg | Ratio ED50 (Mus musculus [8]): 40 | Ki (Cannabinoid receptor 2): 0.9 nM | ED50 (Mus musculus [9]): 1.9 mg/kg | IC50 (Cannabinoid receptor 1 [10]): 8 nM | Ki (Cannabinoid receptor 1 [1]): 3.4 nM | half-life [11]: 2.2 h | ED50 (Mus musculus [12]): 25.6 mg/kg

CSC(=S)N1CC2(CCCCC2)CO/C1=N\c1ccc(C#N)c2ccccc12
Ki (Cannabinoid receptor 2): 1.8 nM | Ki (Cannabinoid receptor 1 [1]): 9.2 nM

CSC(=S)N1CC2(CCCCC2)CO/C1=N\c1cc(C(C)(C)C)no1
Ki (Cannabinoid receptor 2): 1 nM | Ki (Cannabinoid receptor 1 [1]): 0.9 nM

CSC(=S)N1CC2(CCCCC2)CO/C1=N\c1cccc2nonc12
Ki (Cannabinoid receptor 2): 6.8 nM | Ki (Cannabinoid receptor 1 [1]): 152 nM

CSC(=S)N1CC2(CCCCC2)CS/C1=N\c1cccc2ccccc12
bioavailability [2]: 80% | ED50 (Mus musculus [3]): 1 mg/kg | Cmax [4]: 160 ng/mL | AUC [5]: 1390 ng·h/mL | Ratio ED50 (Mus musculus [8]): 19.2 | ED50 (Mus musculus [9]): 1.5 mg/kg | IC50 (Cannabinoid receptor 1 [10]): 10 nM | ED50 (Mus musculus [12]): 19.2 mg/kg

CSC(=S)N1CC2(CCCCC2)CO/C1=N\c1nc(C(C)(C)C)cs1
Ki (Cannabinoid receptor 2): 1 nM | Ki (Cannabinoid receptor 1 [1]): 1 nM
